≈ marks a conversion by molar mass, not a printed value. Read-outs that look alike come from different tables or passages of the source.
Key:
Aspergillus niger = experiment: 95% growth inhibitory concentration, Aspergillus niger; format: cell-based, Aspergillus niger IFO 9455; details: IFO9455, 72 h, read-out: 95% Growth inhibitory concentration, Aspergillus niger
Method: (§1) Strains for use in test: Candida albicans, IFO 1594 Aspergillus niger, IFO 9455
(§2) Culture medium: Liquid Sabouraud's medium (maltose 40 g, proteose peptone 10 g, distilled water 1000 ml)
(§3) Positive control: amphotericin B (Sigma) 5-fluorocytosine (Wako Junyaku, Japan)
(§4) A sample was diluted with culture medium to vary concentrations and poured into test tubes each to contain 5 ml, and a platinum loop of spores was inoculated in each tube. After shaken cultivation at 37° C. for 3 days, formalin (0.5 ml) was added and well mixed. The mixture was centrifuged at 3500 rpm for 10 minutes to collect fungi, which were in turn dewatered on a filter paper, dried at 100° C. for one hour and weighed. The growth rate was determined by the following equation [formula] 95% growth-inhibitory concentration (up to 5% growth rate): a mean value of sample concentrations producing 95% growth inhibitory effects.

Candida albicans = experiment: 95% growth inhibitory concentration, Candida albicans; format: cell-based, Candida albicans IFO 1594; details: read-out: 95% Growth inhibitory concentration, Candida albicans
Method: as §1, §2, §3
A culture resulting from shaken cultivation at 37° C. overnight was diluted 100-fold with the culture medium and used as seed culture.
A sample was diluted with the culture medium to vary concentrations and poured into test tubes each to contain 5 ml, and the seed culture (100 μl) was inoculated. After cultivation with shaking at 37° C. for 18 hours, formalin (0.5 ml) was added, thoroughly mixed, and diluted 10-fold with the culture medium. The resultant liquor was measured for absorbancy at 660 nm. The growth rate (%) was determined according to the equation [formula]
as §4

platelet aggregation = details: literature; cited from earlier work
[1] = one week toxicity test, intraperitoneal; format: in vivo; details: 5 male ICR mice of 5 weeks age, dose not given
fungi = details: Japanese Patent Publication No. 263121/1987; cited from earlier work
[2] = Aspergillus niger IFO 9455, liquid Sabouraud's medium, 37° C., 3 days, dry weight, up to 5% growth rate, mean value
[3] = IFO1594, Candida albicans IFO 1594, liquid Sabouraud's medium, 37° C., 18 hours, up to 5% growth rate, mean value

Q: For CCOC(=O)CCCSSC=CC[S+]([O-])CCCC(=O)OCC (stereo not shown) [Compound 10], which IC95 (Aspergillus niger; [2]) is on record?
A: 80.4 µg/mL (≈ 210 µM)

Q: For C[C@@H]1[C@H](O)[C@@H](C)/C=C/C=C/C=C/C=C/C=C/C=C/C=C/[C@H](O[C@@H]2O[C@H](C)[C@@H](O)[C@H](N)[C@@H]2O)C[C@@H]2O[C@](O)(C[C@@H](O)C[C@@H](O)[C@H](O)CC[C@@H](O)C[C@@H](O)CC(=O)O[C@H]1C)C[C@H](O)[C@H]2C(=O)O [Amphotericin B, reference compound], which IC95 (Candida albicans; Candida albicans, IFO1594, 18 h) is on record?
A: 0.2 µg/mL (≈ 0.216 µM)

Q: What about the IC95 (Aspergillus niger; Aspergillus niger) of the same compound?
A: > 0.8 µg/mL

Q: For C=CCSSC=CC[S+](C)[O-] (stereo not shown) [Compound 5], which IC95 (Aspergillus niger; [2]) is on record?
A: 57.3 µg/mL (≈ 275 µM)

Q: Which IC95 (Candida albicans; [3]) does the source give for C=CC[S+]([O-])CC=CSSC (stereo not shown) [Compound 17] here?
A: 40.7 µg/mL (≈ 195 µM)

Q: And the IC95 (Aspergillus niger; [2])?
A: 49.1 µg/mL (≈ 236 µM)

Q: With C=CCSSSC [methylallyltrisulfide] as the compound, how does the “platelet aggregation inhibitory activity” value (platelet aggregation) read?
A: platelet aggregation inhibitory activity

Q: With C=CCS(=O)(=O)CC=CSSCc1ccccc1 [Compound 16] as the compound, how does the IC95 (Aspergillus niger; [2]) read?
A: 42.2 µg/mL (≈ 140 µM)

Q: What does the source list for C=CCSSC=CCS(=O)(=O)CC=C [Compound 1]?
A: IC95 (Candida albicans; [3]): 5.4 µg/mL (≈ 21.6 µM); IC95 (Aspergillus niger; [2]): 28.5 µg/mL (≈ 114 µM); mortality after one week [1]: no mortality was observed

Q: With C=CC[S+]([O-])SC=CCS(=O)(=O)CC=C (stereo not shown) [Compound 7] as the compound, how does the IC95 (Aspergillus niger; [2]) read?
A: 30.8 µg/mL (≈ 116 µM)

Q: With Nc1nc(=O)[nH]cc1F [5-fluorocytosine, reference compound] as the compound, how does the IC95 (Candida albicans; [3]) read?
A: 20 µg/mL (≈ 155 µM)

Q: What about the IC95 (Aspergillus niger; [2]) of the same compound?
A: 80 µg/mL (≈ 620 µM)

Q: For C=CCSSC=CC[S+]([O-])CC=C (stereo not shown) [ajoene], which antifungal activity (fungi) is on record?
A: has antifungal activity

Q: And the “platelet aggregation inhibitory activity” value (platelet aggregation)?
A: demonstrated to have platelet aggregation inhibitory activity
